Data taken from patent US11390604B2 (Hoffmann-La Roche Inc., priority 2019, dated 2022).

Test system: Acinetobacter baumannii ATCC 17961
Experiment: Antimicrobial susceptibility testing: 90% growth inhibitory concentration (IC90) determination
Format: cell-based
Settings: ATCC17961, Acinetobacter baumannii ATCC 17961, Iso-Sensitest broth, read-out: ATCC 17961 IC90
In short: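 Broth microdilution in Iso-Sensitest medium, twofold series (e.g. 50 to 0.097 μM final), ~5×10^5 CFU/ml inoculum, 35±2 °C. OD600 read every 20 min over 16 h. IC90 derived from growth inhibition during logarithmic phase.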

IC90 [nM] | SMILES
681 | CCc1cc(NC(=O)c2ncc(-c3cn(CC#N)nc3C(F)(F)F)n2C)ccc1C(=O)N1CCN(C(=O)C2CCN(C)CC2)CC1 [Example 127, 5-[1-(cyanomethyl)-3-(trifluoromethyl)pyrazol-4-yl]-N-[3-ethyl-4-[4-(1-methylpiperidine-4-carbonyl)piperazine-1-carbonyl]phenyl]-1-methylimidazole-2-carboxamide;formic acid]
1040 | CCc1cc(NC(=O)c2ncc(-c3cn(CC#N)nc3C(F)(F)F)n2C)ccc1C(=O)N1CCN(C(=O)C2CCNCC2)CC1 [Example 128, 5-[1-(cyanomethyl)-3-(trifluoromethyl)pyrazol-4-yl]-N-[3-ethyl-4-[4-(piperidine-4-carbonyl)piperazine-1-carbonyl]phenyl]-1-methylimidazole-2-carboxamide;formic acid]
949 | CCc1cc(NC(=O)c2ncc(-c3cn(CC#N)nc3C(F)(F)F)n2C)ccc1C(=O)N1CCN(C(=O)C2(O)CCNCC2)CC1 [Example 129, 5-[1-(cyanomethyl)-3-(trifluoromethyl)pyrazol-4-yl]-N-[3-ethyl-4-[4-(4-hydroxypiperidine-4-carbonyl)piperazine-1-carbonyl]phenyl]-1-methylimidazole-2-carboxamide;formic acid]
947 | CCc1cc(NC(=O)c2ncc(-c3cn(CC#N)nc3C(F)(F)F)n2C)ccc1C(=O)N1CCN(C(=O)[C@@H]2CCNC2)CC1 [Example 130, 5-[1-(cyanomethyl)-3-(trifluoromethyl)pyrazol-4-yl] N-[3-ethyl-4-[4-[(3R)-pyrrolidine-3-carbonyl]piperazine-1-carbonyl]phenyl]-1-methylimidazole-2-carboxamide;formic acid]
1700 | CCc1cc(NC(=O)c2ncc(-c3cn(CC#N)nc3C(F)(F)F)n2C)ccc1C(=O)N1CCN(C(=O)C2CNC2)CC1 [Example 131, N-[4-[4-(azetidine-3-carbonyl)piperazine-1-carbonyl]-3-ethylphenyl]-5-[1-(cyanomethyl)-3-(trifluoromethyl)pyrazol-4-yl]-1-methylimidazole-2-carboxamide;formic acid]
1170 | CCc1cc(NC(=O)c2ncc(-c3cn(CC#N)nc3C(F)(F)F)n2C)ccc1C(=O)N1CCN(C(=O)NCC2(O)CNC2)CC1 [Example 132, 4-[4-[[5-[1-(cyanomethyl)-3-(trifluoromethyl)pyrazol-4-yl]-1-methylimidazole-2-carbonyl]amino]-2-ethylbenzoyl]-N-[(3-hydroxyazetidin-3-yl)methyl]piperazine-1-carboxamide;formic acid]
775 | CCc1cc(NC(=O)c2ncc(-c3cn(CC#N)nc3C(F)(F)F)n2C)ccc1C(=O)N1CCN(C(=O)N2CCCC(N)C2)CC1 (centres unmarked) [Example 133, N-[4-[4-(3-aminopiperidine-1-carbonyl)piperazine-1-carbonyl]-3-ethylphenyl]-5-[1-(cyanomethyl)-3-(trifluoromethyl)pyrazol-4-yl]-1-methylimidazole-2-carboxamide;formic acid]
860 | CCc1cc(NC(=O)c2ncc(-c3cn(CC#N)nc3C(F)(F)F)n2C)ccc1C(=O)N1CCN(C(=O)N2CC3(CC(N)C3)C2)CC1 [Example 134, N-[4-[4-(6-amino-2-azaspiro[3.3]heptane-2-carbonyl)piperazine-1-carbonyl]-3-ethylphenyl]-5-[1-(cyanomethyl)-3-(trifluoromethyl)pyrazol-4-yl]-1-methylimidazole-2-carboxamide;formic acid]
885 | CCc1cc(NC(=O)c2ncc(-c3cn(CC#N)nc3C(F)(F)F)n2C)ccc1C(=O)N1CCN(C(=O)N2CCNC(C)C2)CC1 (centres unmarked) [Example 135, 5-[1-(cyanomethyl)-3-(trifluoromethyl)pyrazol-4-yl]-N-[3-ethyl-4-[4-(3-methylpiperazine-1-carbonyl)piperazine-1-carbonyl]phenyl]-1-methylimidazole-2-carboxamide;formic acid]
741 | CCc1cc(NC(=O)c2ncc(-c3cn(CC#N)nc3C(F)(F)F)n2C)ccc1C(=O)N1CCN(C(=O)N2CCC(C)(N)CC2)CC1 [Example 136, N-[4-[4-(4-amino-4-methylpiperidine-1-carbonyl)piperazine-1-carbonyl]-3-ethylphenyl]-5-[1-(cyanomethyl)-3-(trifluoromethyl)pyrazol-4-yl]-1-methylimidazole-2-carboxamide;formic acid]
888 | CCc1cc(NC(=O)c2ncc(-c3cn(CC#N)nc3C(F)(F)F)n2C)ccc1C(=O)N1CCN(C(=O)N2CCC(CN)C2)CC1 (centres unmarked) [Example 138, N-[4-[4-[3-(aminomethyl)pyrrolidine-1-carbonyl]piperazine-1-carbonyl]-3-ethylphenyl]-5-[1-(cyanomethyl)-3-(trifluoromethyl)pyrazol-4-yl]-1-methylimidazole-2-carboxamide;formic acid]
1160 | CCc1cc(NC(=O)c2ncc(-c3cn(CC#N)nc3C(F)(F)F)n2C)ccc1C(=O)N1CCN(C(=O)N2CCCC2CN)CC1 (centres unmarked) [Example 139, N-[4-[4-[2-(aminomethyl)pyrrolidine-1-carbonyl]piperazine-1-carbonyl]-3-ethylphenyl]-5-[1-(cyanomethyl)-3-(trifluoromethyl)pyrazol-4-yl]-1-methylimidazole-2-carboxamide;formic acid]
1050 | CCc1cc(NC(=O)c2ncc(-c3cn(CC#N)nc3C(F)(F)F)n2C)ccc1C(=O)N1CCN(C(=O)NC2C3CNCC32)CC1 (centres unmarked) [Example 140, N-(3-azabicyclo[3.1.0]hexan-6-yl)-4-[4-[[5-[1-(cyanomethyl)-3-(trifluoromethyl)pyrazol-4-yl]-1-methylimidazole-2-carbonyl]amino]-2-ethylbenzoyl]piperazine-1-carboxamide;formic acid]
887 | CCc1cc(NC(=O)c2ncc(-c3cn(CC#N)nc3C(F)(F)F)n2C)ccc1C(=O)N1CCN(C(=O)N2CC3CC2CN3)CC1 (centres unmarked) [Example 141, 5-[1-(cyanomethyl)-3-(trifluoromethyl)pyrazol-4-yl]-N-[4-[4-(2,5-diazabicyclo[2.2.1]heptane-2-carbonyl)piperazine-1-carbonyl]-3-ethylphenyl]-1-methylimidazole-2-carboxamide;formic acid]
343 | Cn1c(-c2cn(CC(F)F)nc2C(F)(F)F)cnc1C(=O)Nc1ccc(C(=O)N2CCN(C(=O)N[C@H]3CCNC3)CC2)c(Cl)c1 [Example 142, 4-[2-chloro-4-[[5-[1-(2,2-difluoroethyl)-3-(trifluoromethyl)pyrazol-4-yl]-1-methylimidazole-2-carbonyl]amino]benzoyl]-N-[(3S)-pyrrolidin-3-yl]piperazine-1-carboxamide;formic acid]
426 | Cn1c(-c2cn(CC#N)nc2C(F)(F)F)cnc1C(=O)Nc1ccc(C(=O)N2CCN(C(=O)N[C@H]3CCNC3)CC2)c(Cl)c1 [Example 143, 4-[2-chloro-4-[[5-[1-(cyanomethyl)-3-(trifluoromethyl)pyrazol-4-yl]-1-methylimidazole-2-carbonyl]amino]benzoyl]-N-[(3S)-pyrrolidin-3-yl]piperazine-1-carboxamide;formic acid]

Same assay, conditions: Acinetobacter baumannii ATCC 17961, Iso-Sensitest broth, read-out: ATCC 17961 IC90

SMILES | IC90 [nM]
C=CCn1cc(-c2cnc(C(=O)Nc3ccc(C(=O)NC4CC(N)C4)c(Cl)c3)n2C)c(C(F)(F)F)n1 (centres unmarked) [Example 126, N-[4-[(3-aminocyclobutyl)carbamoyl]-3-chlorophenyl]-1-methyl-5-[1-prop-2-enyl-3-(trifluoromethyl)pyrazol-4-yl]imidazole-2-carboxamide;2,2,2-trifluoroacetic acid] | 293
